Here are results for five compounds from US20030170252A1, “Antibody compositions specific for p33QIK and p63Krs1 polypeptides and uses thereof” (priority 2000, published 2003).

Residues, ends and D or L forms follow the SMILES beside them. *: point of attachment. Cbz = O=C(OCc1ccccc1)*; CH2F = FC*

For one assay, the system named is p33^QIK. Description: In-gel kinase assay (MBP substrate) of p33^QIK activity in treated NIH3T3 cultures. Type of assay: cell-based, mouse. The method, then: (§1) Mouse NIH3T3 fibroblast cultures were maintained in Dulbecco's modified Eagle's medium (DMEM)(BRL/GIBCO, Grand Island, N.Y.) supplemented with 5% calf serum, 50 units/ml penicillin, and 5 mcg/ml streptomycin, and cultivated at 37° C.
(§2) Mouse 10T1/2 fibroblast cultures were maintained in Basal medium Eagle (BRL/GIBCO, Grand Island, N.Y.) supplemented with 10% heat-inactivated fetal bovine serum, 50 U/ml penicillin, and 5 μg/ml streptomycin, and cultivated at 37° C. Cells synchronized in quiescent state were growth-arrested by serum starvation for 48 hr. Actinomycin D (ActD), cycloheximide (CHXM), 12-0-tetradecanoylphorbol 13-acetate (TPA), staurosporine (STSP) (Sigma Chemical, St. Louis, Mo.), sodium fluoride (NaF), sodium orthovanadate (Na3VO4) (Fisher Scientific, Pittsburgh, Pa.), and FR901228 (FR)(NCI, Frederick, Md.) were diluted in cultured medium before treatment of cultured cells. A broad range caspase inhibitor Z-Asp-[(2,6-dichlorobenzoyl)oxy]methane (Z-D-CH2-DCB) (Dolle et al., 1994; Mashima et al., 1995)(CALBIOCHEM, La Jolla, Calif.) was dissolved in dimethyl sulfoxide and diluted in cultured medium for treatment. Recombinant human Caspase-3 was purchased from Alexis Biochemicals (San Diego, Calif.). Protein phosphatase 1 (PP1) and Lambda protein phosphatase (λPPase) were purchased from NE BioLabs (Beverly, Mass.). Production of rabbit polyclonal antibody Ab-KQ to p63^Krsl and p33^QIK was made using peptide sequences of Krsl as antigens (Alpha Diagnostic International, San Antonio, Tex.). UV irradiation was carried out using a UV Crosslinker (Stratagene, La Jolla, Calif.).
(§3) Cells were lysed with 30 strokes of a tight-fitting Dounce homogenizer in lysis A buffer (10 mM KH2PO4, 1 mM EDTA, 5 mM EGTA, 10 mM MgCl2, 50 mM […], 1 mM Na3VO4, 2 mM dithiothreitol) (Wang et al., 1992). Cytoplasmic proteins (S20) were isolated from the supernatants after centrifugation of crude lysates at 20,000 ×g for 20 min. Protein concentration in S20 was measured by using the BCA assay (Pierce, Rockford, Ill.). Immunoprecipitation of p33^QIK was carried out by incubation of S20 with the specific antibody Ab-KQ at 0° C. for 1 hr. Immune complexes were adsorbed to Pansorbin (Staphylococcus aureus) (CALBIOCHEM, La Jolla, Calif.) at 0° C. for 30 min and washed with STE buffer (50 mM Tris-HCl, pH 7.0, 150 mM NaCl, 1 mM Na2 EDTA) supplemented with 0.1 mM DTT and 0.1% NP-40 and ST buffer supplemented with 1 mM DTT.
(§4) MBP (BRL/GIBCO, Grand Island, N.Y.) was used as a substrate in the assay and the in-gel kinase assay was performed as previously described (Wang et al., 1992). Briefly, 10% SDS-polyacrylamide gel (SDS-PAG) was copolymerized with 0.4 mg/ml MBP. Cellular proteins were resolved in the MBP-immobilized SDS-PAG, followed by rinsing the gel with 20% isopropanol in buffer B (100 mM Tris, pH 8, 5 mM β-mercaptoethanol). The gel was denatured in buffer B supplemented with 6 M guanidine-HCl and renatured with buffer B supplemented with 0.04% Tween 40 (Kameshita and Fujisawa, 1989). Kinase reaction was carried out by incubating the gel with kinase buffer (20 Mm Tris, pH 7.2, 10 mM MgCl2, 15 mM β-glycerolphosphate) supplemented with 50 μM γATP and 50 μCi of [γ-^32P]ATP at 22° C. for 30 min. The gel was washed with 1% sodium pyrophosphate in 5% trichloroacetic acid. Protein kinases which phosphorylated MBP in the gel were detected by autoradiography of the [γ^32P]-labeled MBP.

Another assay addresses p63^Krsl. Description: In-gel kinase assay (MBP substrate) of p63^Krsl activity in treated NIH3T3 cultures. Type of assay: cell-based, mouse. The method, then: as §1
Mouse 10T1/2 fibroblast cultures were maintained in Basal medium Eagle (BRL/GIBCO, Grand Island, N.Y.) supplemented with 10% heat-inactivated fetal bovine serum, 50 U/ml penicillin, and 5 μg/ml streptomycin, and cultivated at 37° C. Cells synchronized in quiescent state were growth-arrested by serum starvation for 48 hr. […]
Cells were lysed with 30 strokes of a tight-fitting Dounce homogenizer in lysis A buffer (10 mM KH2PO4, 1 mM EDTA, 5 mM EGTA, 10 mM MgCl2, 50 mM […], 1 mM Na3VO4, 2 mM dithiothreitol) (Wang et al., 1992). […] Protein concentration in S20 was measured by using the BCA assay (Pierce, Rockford, Ill.). […]
MBP (BRL/GIBCO, Grand Island, N.Y.) was used as a substrate in the assay and the in-gel kinase assay was performed as previously described (Wang et al., 1992). […] Protein kinases which phosphorylated MBP in the gel were detected by autoradiography of the [γ^32P]-labeled MBP.

The test system of the next assay is NIH3T3 cells. Description: Flow cytometric analysis of DNA content (cell cycle phase). Type of assay: cell-based, mouse. Conditions: NIH3T3 synchronized by serum starvation, 18 hr serum, then 10 nM STSP for 24 hr. As for the experimental part:
After rinsing with phosphate buffered saline (PBS), cells were trypsinized from culture dishes, rinsed with Ca^++ and Mg^++ free PBS, fixed in 70% cold ethanol, and stained with 10 μg/ml propidium iodide (PI) for 30 min (Darzynkiewicz et al., 1995). Flow cytometry analysis was performed on the Coulter EPICS Elite Cytometer (Hialeah, Fla.) using 15 mW air-cooled argon laser producing 488-nm light in which PI fluorescence light emission is collected with a 610LPDC filter. Extended analysis of DNA content and calculation of the percentage of cells in each phase of the cell cycle were performed on Multicycle software (Phoenix Flow System, San Diego, Calif.).
(In flow cytometry, cells or beads pass a laser one at a time.)

For the next assay, the system named is cells. Conditions: cited from earlier work.
For another assay, the target named is p44/42^Erk. Type of assay: cell-based, mouse. Conditions: quiescent NIH3T3 cultures (48 hr serum starvation) stimulated with reagent, 1-6 hr. As for the experimental part: as §1, §2, §3, §4
Setting [1] is: quiescent NIH3T3 cultures (48 hr serum starvation) stimulated with reagent, 1-6 hr.

Regarding `COC(=O)C[C@H](NC(=O)[C@H](C)NC(=O)[C@@H](NC(=O)OCc1ccccc1)C(C)C)C(=O)CF` [Z-VAD-FMK] (Cbz-Val-Ala-Asp(OMe)-CH2F), the “induction of p33^QIK activity” value with p33^QIK (cultures preincubated with caspase inhibitor prior to serum starvation and osmotic stress) was “neither blocked induction of p33^QIK activity”.

On to `C=C1[C@@H](O)[C@@H]2O[C@]3(CC[C@H](/C=C/[C@@H](C)[C@@H]4CC(C)=C[C@@]5(O[C@H](C[C@@](C)(O)C(=O)O)CC[C@H]5O)O4)O3)CC[C@H]2O[C@@H]1[C@@H](O)C[C@H](C)[C@H]1O[C@@]2(CCCCO2)CC[C@H]1C` [okadaic acid], for which, at p33^QIK (setting [1]), the “kinase activity of p33^QIK” value is on record as “did not result in deactivation of p33^QIK”. Further, at p63^Krsl (quiescent NIH3T3 cultures stimulated with reagent), the “kinase activity of p63^Krsl” value is recorded as “activated p63^Krsl”.

For `CN[C@@H]1C[C@H]2O[C@@](C)([C@@H]1OC)n1c3ccccc3c3c4c(c5c6ccccc6n2c5c31)C(=O)NC4` [STSP, staurosporine], on p33^QIK (NIH3T3 synchronized by serum starvation, 18 hr serum, then 10 nM STSP for 24 hr), the “kinase activity of p33^QIK” value is “activation of p33^QIK was detected”. Also, the “kinase activity of p63^Krsl” value at p63^Krsl (quiescent NIH3T3 cultures, 100 nM STSP, 2 hr) was “activated p63^Krsl”. The “cell population in each phase of the cell cycle” value in the assay on NIH3T3 cells is “a major population of cells was arrested in G0/G1 state”. In addition, the “concentration arresting cells in G2 phase” value in the assay on cells (high concentration) was 100 to 150 nM. Moreover, the “concentration arresting cells in early G1 phase” value in the assay with cells (low concentration) was 2 to 20 nM.

With `CCCCCCCCCCCCCC(=O)O[C@@H]1[C@@H](C)[C@@]2(O)[C@@H](C=C(CO)C[C@]3(O)C(=O)C(C)=C[C@@H]23)[C@H]2C(C)(C)[C@]12OC(C)=O` [phorbol ester, 12-0-tetradecanoylphorbol 13-acetate], the “kinase activity of p33^QIK” value at p33^QIK (setting [1]) is listed as “progressive decrease of p33^QIK activity”. Further, the “kinase activity of p44/42^Erk” value on p44/42^Erk was “transient induction of p44/42^Erk activity”.

With `[F-].[Na+]` [sodium fluoride], the “kinase activity of p33^QIK” value at p33^QIK (setting [1]) is listed as “resulted in deactivation of p33^QIK”. Also, the “kinase activity of p44/42^Erk” value on p44/42^Erk is “induced p44/42^Erk activity”.
